Measured values reported in patent US11279733B2, “Peptide antibiotics” (priority 2017, dated 2022).
Read-outs that look alike come from different tables or passages of the source.

What was measured:
[1] = tested on: P. aeruginosa GN_043, PmxR
Outline: (§1)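 Mid-log cultures grown in Mueller Hinton broth at 37° C were tested by 2-fold broth microdilution at 5×10^5 CFU/mL final. Compounds were dissolved in water and tested over a final range of 32 to 0.015 μg/mL.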

P. aeruginosa ATCC 27853 = tested on: P. aeruginosa ATCC 27853
Outline: as §1

E. coli ATCC 25922 = tested on: E. coli ATCC 25922
Outline: as §1

[2] = tested on: K. pneumoniae ATCC 700603, MDR
Outline: as §1

[3] = tested on: K. pneumoniae ATCC BAA-2146, NDM-1 pos
Outline: as §1

In the case of “polymyxin B sulfate [PolymyxinB, reference compound]”, the “MIC P. aeruginosa GN_043, PmxR” value [1] is reported as 64 µg/mL, the “MIC P. aeruginosa GN_043, PmxR” value ([1]; P. aeruginosa GN_043, PmxR) is reported as 64 µg/mL and the “MIC, P. aeruginosa FADDI-PA070, PmxR” value ([1]; Table 5, polymyxin-resistant) is reported as 64 µg/mL. For the same substance, the “MIC P. aeruginosa GN_043, PmxR” value ([1]; Table 6, polymyxin-resistant) was 64 µg/mL, the “MIC P. aeruginosa GN_043, PmxR” value ([1]; polymyxin-resistant) was 64 µg/mL and the “MIC, P. aeruginosa FADDI-PA070, PmxR” value ([1]; strain name as in Table 11) was 64 µg/mL. For the same substance, the “MIC P. aeruginosa ATCC 27853” value (P. aeruginosa ATCC 27853) was 0.5 µg/mL, the “MIC P. aeruginosa ATCC 27853” value (P. aeruginosa ATCC 27853; P. aeruginosa ATCC 27853) was 0.5 µg/mL and the “MIC, P. aeruginosa ATCC 27853” value (P. aeruginosa ATCC 27853; Table 5) was 0.5 µg/mL. For the same substance, the “MIC, P. aeruginosa ATCC 27853” value (P. aeruginosa ATCC 27853; Table 6) was 0.5 µg/mL, the “MIC E. coli ATCC 25922” value (E. coli ATCC 25922) was 0.25 µg/mL and the “MIC E. coli ATCC 25922” value (E. coli ATCC 25922; E. coli ATCC 25922) was 0.25 µg/mL. The “MIC, E. coli ATCC 25922” value (E. coli ATCC 25922; Table 5) was 0.25 µg/mL, the “MIC, E. coli ATCC 25922” value (E. coli ATCC 25922; Table 6) was 0.25 µg/mL and the “MIC K. pneumoniae ATCC 700603, MDR” value [2] was 0.5 µg/mL. For the same substance, the “MIC K. pneumoniae ATCC 700603, MDR” value ([2]; K. pneumoniae ATCC 700603, MDR) was 0.5 µg/mL, the “MIC, K. pneumoniae ATCC 700603, MDR” value ([2]; Table 5) was 0.5 µg/mL and the “MIC, K. pneumoniae ATCC 700603, MDR” value ([2]; Table 6) was 0.5 µg/mL. For the same substance, the “MIC K. pneumoniae ATCC BAA-2146, NDM-1 pos” value [3] was 0.25 µg/mL, the “MIC K. pneumoniae ATCC BAA-2146, NDM-1 pos” value ([3]; K. pneumoniae ATCC BAA-2146, NDM-1 pos) was 0.25 µg/mL and the “MIC, K. pneumoniae ATCC BAA-2146, NDM-1 pos” value ([3]; Table 5) was 0.25 µg/mL. The “MIC, K. pneumoniae ATCC BAA-2146, NDM-1 pos” value ([3]; Table 6) was 0.25 µg/mL.
